# Data reported in patent US10053453B2, “Compounds and their use as BACE inhibitors” (AstraZeneca AB, priority 2014, dated 2018).
# Read-outs that look alike come from different tables or passages of the source.
# Key:
# Human BACE2 = target: T1, Human BACE2 (Homo sapiens, UniProt Q9Y5Z0); assay: TR-FRET assay; assay type: biochemical; conditions: substrate 100 nM, pH4.5
# T1 construct: the soluble part of the human β-Secretase2 (AA1-AA473) was cloned using BACE2(1-473)-(AVT)-Fc-pDEST12.2 mammalian expression vector; AVT linker (C); made in house
# T1 sequence (Q9Y5Z0 21-473): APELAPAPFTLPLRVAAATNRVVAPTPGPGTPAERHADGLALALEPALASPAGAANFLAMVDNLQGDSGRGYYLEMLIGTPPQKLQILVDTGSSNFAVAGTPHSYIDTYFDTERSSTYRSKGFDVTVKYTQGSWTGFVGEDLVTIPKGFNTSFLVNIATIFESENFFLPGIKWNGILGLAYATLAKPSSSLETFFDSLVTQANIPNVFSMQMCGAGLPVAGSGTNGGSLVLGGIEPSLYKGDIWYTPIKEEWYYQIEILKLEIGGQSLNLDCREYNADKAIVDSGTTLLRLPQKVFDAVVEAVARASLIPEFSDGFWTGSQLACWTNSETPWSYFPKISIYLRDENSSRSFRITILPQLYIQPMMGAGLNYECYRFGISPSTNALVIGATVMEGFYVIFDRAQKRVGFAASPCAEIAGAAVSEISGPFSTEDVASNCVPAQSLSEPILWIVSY
# SH-SY5Y cells = assay: sAPPβ release assay
# Description: Cells were thawed and seeded at a concentration of around 10000 cells/well in DMEM/F-12 with Glutamax, 10% FCS and 1% non-essential amino acids to a 384-well tissue culture treated plate, 30 μL cell susp/well. The cell plates were then incubated for 7-24 h at 37° C., 5% CO2.
# The cell medium was removed, followed by addition of 50 μL compound diluted in DMEM/F-12 with Glutamax, 10% FCS, 1% non-essential amino acids to a final cone of 0.5% DMSO. The compounds were incubated with the cells for 16-17 h (overnight) at 37° C., 5% CO2.
# Meso Scale Discovery (MSD) plates were used for the detection of sAPP release. MSD sAPPβ plates were blocked in 1% BSA in Tris wash buffer for 1 h on shake at r.t. and washed 1 time in Tris wash buffer. […] The MSD plates were incubated with shaking at r.t. for 2 h and the media discarded. 10 μL detection antibody was added (1 nM) per well followed by incubation with shaking at r.t. for 2 h and then discarded. 35 μL Read Buffer was added per well and the plates were read in a Meso Scale Discovery SECTOR6000 Imager.
# Human BACE1 = target: T2, Human BACE1 (Homo sapiens, UniProt P56817); assay: Diluted TR-FRET assay; assay type: biochemical; conditions: 50 times less enzyme, 6.5 h reaction time at r.t.; read-out: IC50 BACE1 (dil. TR-FRET)
# T2 construct: the soluble part of the human β-Secretase1 (AA1-AA460) was cloned using the BACE1(1-460)-(AVT)-Fc-pGEN-IRES-neo mammalian expression vector; AVT linker (C); made in house
# In short: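 Human BACE1 (residues 1-460) was fused to an IgG1 Fc affinity tag and stably expressed in HEK 293 cells. Using a Multidrop Combi, 7 μL enzyme was added to 0.8 μL compound in dimethylsulphoxide and incubated 10 minutes. Reactions were stopped with 5.5 μL NaOAC Stop solution (pH 9), and TR-FRET fluorescence was read on a Pherastar HTRF module.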
# [1] = Homo sapiens, SH-SY5Y, read-out: IC50 Cell (sAPPβ release, nM), SH-SY5Y cells, compounds incubated 16-17 h
# [2] = read-out: IC50 Cell (sAPPβ release), SH-SY5Y cells, compounds incubated 16-17 h
# T2 sequence (P56817 22-460): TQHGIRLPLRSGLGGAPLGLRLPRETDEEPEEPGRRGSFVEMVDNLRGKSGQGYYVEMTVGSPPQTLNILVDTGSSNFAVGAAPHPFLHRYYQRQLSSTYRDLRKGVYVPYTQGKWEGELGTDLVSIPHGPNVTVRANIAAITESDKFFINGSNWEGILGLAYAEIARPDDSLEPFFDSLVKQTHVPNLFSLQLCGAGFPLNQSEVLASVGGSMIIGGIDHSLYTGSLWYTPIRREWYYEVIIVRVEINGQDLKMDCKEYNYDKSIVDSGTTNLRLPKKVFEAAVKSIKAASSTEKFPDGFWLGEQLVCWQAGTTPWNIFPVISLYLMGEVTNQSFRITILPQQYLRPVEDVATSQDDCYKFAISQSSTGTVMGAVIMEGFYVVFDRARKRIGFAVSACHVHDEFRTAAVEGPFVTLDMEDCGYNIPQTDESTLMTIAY
IC50 (Human BACE2; enzyme 2.7 μg/mL) [nM],IC50 (SH-SY5Y cells; [1]) [nM],IC50 (Human BACE1) [nM],IC50 (SH-SY5Y cells; [2]) [nM],IC50 (Human BACE2; enzyme […]) [nM],SMILES,"IC50 (SH-SY5Y cells; Homo sapiens, SH-SY5Y, read-out: IC50 Cell (sAPPβ release, nM)) [nM]"
1210,561,> 5000,,,"COCCC1(C)Cc2ccc(-c3cc(C#N)cc(OC)c3)cc2C12COC(N)=N2 (stereo not drawn) [Compound 93, 3-(2′-amino-2-(2-methoxyethyl)-2-methyl-2,3-dihydro-5′H-spiro[indene-1,4′-oxazol]-6-yl)-5-methoxybenzonitrile]",
701,331,4660,,,"NC1=NC2(CO1)c1cc(-c3cncnc3)ccc1CC2C1CCOCC1 (stereo not drawn) [Compound 94, 6-(pyrimidin-5-yl)-2-(tetrahydro-2H-pyran-4-yl)-2,3-dihydro-5′H-spiro[indene-1,4′-oxazol]-2′-amine]",
> 5000,,> 5000,889,,"CC1(C2CCOCC2)Cc2ccc(-c3cncnc3)cc2C12COC(N)=N2 (stereo not drawn) [Compound 95, 2-methyl-6-(pyrimidin-5-yl)-2-(tetrahydro-2H-pyran-4-yl)-2,3-dihydro-5′H-spiro[indene-1,4′-oxazol]-2′-amine]",
1790,205,> 5000,,,"CC1(C2Cc3ccc(-c4cncnc4)cc3C23COC(N)=N3)CCOCC1 (stereo not drawn) [Compound 96, 2-(4-methyltetrahydro-2H-pyran-4-yl)-6-(pyrimidin-5-yl)-2,3-dihydro-5′H-spiro[indene-1,4′-oxazol]-2′-amine]",
> 5000,1420,> 5000,,,"C[C@@H]1CC(C2Cc3ccc(-c4cncnc4)cc3C23COC(N)=N3)C[C@H](C)O1 (stereo partly drawn) [Compound 97, 2-((2R,6S)-2,6-dimethyltetrahydro-2H-pyran-4-yl)-6-(pyrimidin-5-yl)-2,3-dihydro-5′H-spiro[indene-1,4′-oxazol]-2′-amine]",
519,489,3190,,,"CC#Cc1cncc(-c2ccc3c(c2)C2(COC(N)=N2)C(N2CCOCC2)C3)c1 (stereo not drawn) [Compound 99, 2-morpholino-6-(5-(prop-1-yn-1-yl)pyridin-3-yl)-2,3-dihydro-5′H-spiro[indene-1,4′-oxazol]-2′-amine]",
1370,2160,> 5000,,,"COc1cc(C#N)cc(-c2ccc3c(c2)C2(COC(N)=N2)C(N2CCOCC2)C3)c1 (stereo not drawn) [Compound 100, 3-(2′-amino-2-morpholino-2,3-dihydro-5′H-spiro[indene-1,4′-oxazol]-6-yl)-5-methoxybenzonitrile]",
274,75.6,194,,,"COc1cc(C#N)cc(-c2ccc3c(c2)C2(COC(N)=N2)C(C)(C2CCOCC2)C3)c1 (stereo not drawn) [Compound 101, 3-(2′-amino-2-methyl-2-(tetrahydro-2H-pyran-4-yl)-2,3-dihydro-5′H-spiro[indene-1,4′-oxazol]-6-yl)-5-methoxybenzonitrile]",
,,2190,32.9,> 5000,"CC1(C2CCOCC2)Cc2ccc(-c3cncnc3)cc2C12COC(N)=N2 (stereo not drawn) [Compound 102, 2-methyl-6-(pyrimidin-5-yl)-2-(tetrahydro-2H-pyran-4-yl)-2,3-dihydro-5′H-spiro[indene-1,4′-oxazol]-2′-amine]",
55,0.6,22,,,"[2H]C([2H])([2H])O[C@H]1CC[C@@]2(Cc3ccc(-c4cc(Cl)cnc4F)cc3[C@]23N=C(N)OC3([2H])[2H])C[C@@H]1C [Compound 103, {(1S,1′R,3S,4S)-6′-(2-fluoro-5-chloropyridin-3-yl)-4-(methoxy-d3)-3-methyl-3′H,5″H-dispiro[cyclohexane-1,2′-indene-1′,4″-oxazol]-5″,5″-d2-2″-amine}]",
1010,0.7,77,,,"[2H]C([2H])([2H])O[C@H]1CC[C@@]2(Cc3ccc(-c4cnccc4F)cc3[C@]23N=C(N)OC3([2H])[2H])C[C@@H]1C [Compound 104, {(1S,1′R,3S,4S)-6′-(4-fluoropyridin-3-yl)-4-(methoxy-d3)-3-methyl-3′H,5″H-dispiro[cyclohexane-1,2′-indene-1′,4″-oxazol]-5″,5″-d2-2″-amine}]",
71,0.4,13,,,"[2H]C([2H])([2H])O[C@H]1CC[C@@]2(Cc3ccc(-c4cncc(C#N)c4)cc3[C@]23N=C(N)OC3([2H])[2H])C[C@@H]1C [Compound 105, {(1S,1′R,3S,4S)-6′-(5-cyanopyridin-3-yl)-4-(methoxy-d3)-3-methyl-3′H,5″H-dispiro[cyclohexane-1,2′-indene-1′,4″-oxazol]-5″,5″-d2-2″-amine}]",
80,2.8,49,,,"[2H]C([2H])([2H])O[C@@H]1CC[C@]2(Cc3ccc(-c4cc(Cl)cnc4F)cc3[C@]23N=C(N)OC3([2H])[2H])C[C@H]1C [Compound 106, {(1R,1′R,3R,4R)-4-(methoxy-d3)-3-methyl-6′-(2-fluoro-5-chloropyridin-3-yl)-3′H,5″H-dispiro[cyclohexane-1,2′-indene-1′,4″-oxazol]-5″,5″-d2-2″-amine}]",
2110,1.8,294,,,"[2H]C([2H])([2H])O[C@@H]1CC[C@]2(Cc3ccc(-c4cnccc4F)cc3[C@]23N=C(N)OC3([2H])[2H])C[C@H]1C [Compound 107, {(1R,1′R,3R,4R)-4-(methoxy-d3)-3-methyl-6′-(4-fluoropyridin-3-yl)-3′H,5″H-dispiro[cyclohexane-1,2′-indene-1′,4″-oxazol]-5″,5″-d2-2″-amine}]",
58,1.5,56,,,"[2H]C([2H])([2H])O[C@@H]1CC[C@]2(Cc3ccc(-c4cncc(C#N)c4)cc3[C@]23N=C(N)OC3([2H])[2H])C[C@H]1C [Compound 108, {(1R,1′R,3R,4R)-4-(methoxy-d3)-3-methyl-6′-(5-cyanopyridin-3-yl)-3′H,5″H-dispiro[cyclohexane-1,2′-indene-1′,4″-oxazol]-5″,5″-d2-2″-amine}]",
96,10,67,,,"[2H]C1([2H])OC(N)=NC12c1cc(-c3cc(F)cc(F)c3)ccc1C[C@@]21CC[C@H](OC)[C@@H](C)C1 (stereo partly drawn) [Compound 110, {(1S,3S,4S)-4-methoxy-3-methyl-6′-(3,5-difluorophenyl)-3′H,5″H-dispiro[cyclohexane-1,2′-indene-1′,4″-oxazol]-5″,5″-d2-2″-amine}]",
> 5000,89,2160,,,[2H]C1([2H])OC(N)=NC12c1cc(-c3ccnc(O)c3)ccc1C[C@@]21CC[C@H](OC)[C@@H](C)C1 (stereo partly drawn) [Compound 111],
4820,14,2030,,,"[2H]C1([2H])OC(N)=N[C@]12c1cc(-c3ccncc3)ccc1C[C@@]21CC[C@H](OC)[C@@H](C)C1 [Compound 112, {(1S,1′R,3S,4S)-4-methoxy-3-methyl-6′-(pyridin-4-yl)-3′H,5″H-dispiro[cyclohexane-1,2′-indene-1′,4″-oxazol]-5″,5″-d2-2″-amine}]",
64,0.2,17,,,"[2H]C1([2H])OC(N)=N[C@]12c1cc(-c3cncc(C#N)c3)ccc1C[C@@]21CC[C@H](OC)[C@@H](C)C1 [Compound 113, {(1S,1′R,3S,4S)-4-methoxy-3-methyl-6′-(5-cyanopyridin-3-yl)-3′H,5″H-dispiro[cyclohexane-1,2′-indene-1′,4″-oxazol]-5″,5″-d2-2″-amine}]",
1840,8,770,,,"[2H]C1([2H])OC(N)=N[C@]12c1cc(-c3ccccn3)ccc1C[C@@]21CC[C@H](OC)[C@@H](C)C1 [Compound 114, {(1S,1′R,3S,4S)-4-methoxy-3-methyl-6′-(pyridin-2-yl)-3′H,5″H-dispiro[cyclohexane-1,2′-indene-1′,4″-oxazol]-5″,5″-d2-2″-amine}]",
2220,13,346,,,"[2H]C1([2H])OC(N)=N[C@]12c1cc(-c3ccnnc3)ccc1C[C@@]21CC[C@H](OC)[C@@H](C)C1 [Compound 115, {(1S,1′R,3S,4S)-4-methoxy-3-methyl-6′-(pyridazin-4-yl)-3′H,5″H-dispiro[cyclohexane-1,2′-indene-1′,4″-oxazol]-5″,5″-d2-2″-amine}]",

SMILES,IC50 (Human BACE2; enzyme 2.7 μg/mL) [nM],IC50 (SH-SY5Y cells; [1]) [nM],IC50 (Human BACE1) [nM],IC50 (SH-SY5Y cells; [2]) [nM],IC50 (Human BACE2; enzyme […]) [nM],"IC50 (SH-SY5Y cells; Homo sapiens, SH-SY5Y, read-out: IC50 Cell (sAPPβ release, nM)) [nM]"
"NC1=NC2(CO1)c1cc(-c3cncnc3)ccc1CC2N1CCOCC1 (stereo not drawn) [Compound 98, 2-morpholino-6-(pyrimidin-5-yl)-2,3-dihydro-5′H-spiro[indene-1,4′-oxazol]-2′-amine]",> 1580,,> 5000,,,1840
